Results reported in ChEMBL document CHEMBL4699486, “Fragment-based lead discovery of a novel class of small molecule antagonists of neuropeptide B/W receptor subtype 1 (GPR7)” (Bioorg Med Chem Lett, 2020).
pIC50: −log10 of the molar value.

biological target: T1, Neuropeptides B/W receptor type 1 (Homo sapiens, UniProt P48145); assay: Antagonist activity at human NPBWR1 assessed as inhibition of agonist-induced cAMP accumulation by cAMP assay; assay type: functional
T1 sequence (P48145 whole entry): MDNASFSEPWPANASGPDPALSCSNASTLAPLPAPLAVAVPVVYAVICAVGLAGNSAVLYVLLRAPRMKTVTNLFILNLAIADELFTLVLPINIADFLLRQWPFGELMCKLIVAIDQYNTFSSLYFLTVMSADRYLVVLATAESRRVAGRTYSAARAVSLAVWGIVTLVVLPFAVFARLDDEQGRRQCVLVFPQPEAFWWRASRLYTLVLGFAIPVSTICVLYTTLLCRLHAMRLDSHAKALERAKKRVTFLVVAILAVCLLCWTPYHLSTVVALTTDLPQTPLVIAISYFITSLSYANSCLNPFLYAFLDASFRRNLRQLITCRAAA

Row | SMILES | pIC50
1 | O=[N+]([O-])c1ccc2[nH]c(-c3ccccc3)nc2c1 | 5.00
2 | COc1ccc(-c2nc3cc([N+](=O)[O-])ccc3[nH]2)cc1 | 5.22
3 | Nc1ccc(-c2nc3cc([N+](=O)[O-])ccc3[nH]2)cc1 | 5.07
4 | O=[N+]([O-])c1ccc2nc(-c3ccc(Cl)c(Cl)c3)[nH]c2c1 | < 4.50
5 | O=[N+]([O-])c1ccc2nc(-c3ccccc3Cl)[nH]c2c1 | 4.97
6 | O=[N+]([O-])c1ccc2[nH]c(-c3ccc(-c4ccccc4)cc3)nc2c1 | 5.31
7 | O=[N+]([O-])c1ccc2[nH]c(-c3ccccc3N3CCCC3)nc2c1 | 5.17
8 | FC(F)(F)c1ccc2[nH]c(-c3ccc(-c4nnc[nH]4)cc3)nc2c1 | 5.51
9 | O=[N+]([O-])c1ccc2[nH]c(-c3ccc(Cl)c(Br)c3)nc2c1 | < 4.50
10 | NS(=O)(=O)c1ccc(-c2nc3cc([N+](=O)[O-])ccc3[nH]2)cc1 | < 4.50
11 | O=[N+]([O-])c1ccc2[nH]c(-c3cccc(Cl)c3)nc2c1 | 5.00
12 | O=[N+]([O-])c1ccc2[nH]c(-c3cccc(N4CCCC4)c3)nc2c1 | 5.22
13 | CC(=O)c1ccccc1-c1nc2cc([N+](=O)[O-])ccc2[nH]1 | < 4.50
14 | O=[N+]([O-])c1ccc2[nH]c(-c3ccc(C(F)(F)F)cc3)nc2c1 | < 4.50
15 | CC(=O)c1cccc(-c2nc3cc([N+](=O)[O-])ccc3[nH]2)c1 | < 4.50
16 | CC(=O)c1ccc(-c2nc3cc([N+](=O)[O-])ccc3[nH]2)cc1 | 5.03
17 | CC(C)(C)c1ccc(-c2nc3cc([N+](=O)[O-])ccc3[nH]2)cc1 | 5.50

Stronger by pIC50, values ahead:

Row | pIC50 | SMILES
18 | 5.92 | FC(F)(F)c1ccc2[nH]c(-c3ccccc3)nc2c1
19 | 5.57 | O=[N+]([O-])c1ccc2nc(-c3ccc(Cl)cc3)[nH]c2c1
20 | 5.82 | Cc1ccc(-c2nc3cc([N+](=O)[O-])ccc3[nH]2)cc1
21 | 5.54 | O=[N+]([O-])c1ccc2nc(-c3ccc(Cl)cc3Cl)[nH]c2c1
22 | 5.76 | O=[N+]([O-])c1ccc2[nH]c(-c3ccc(Cl)cc3Br)nc2c1
23 | 6.69 | O=[N+]([O-])c1ccc2[nH]c(-c3c(Cl)cc(Cl)cc3I)nc2c1
24 | 5.86 | Cc1ccc(-c2nc3cc([N+](=O)[O-])ccc3[nH]2)cc1C
25 | 5.99 | CCc1ccc(-c2nc3cc([N+](=O)[O-])ccc3[nH]2)cc1
26 | 5.81 | Cc1ccc(-c2nc3cc([N+](=O)[O-])ccc3[nH]2)c(C)c1
27 | 5.92 | FC(F)(F)c1ccc2[nH]c(-c3ccc(-c4c[nH]nc4C(F)(F)F)cc3)nc2c1
28 | 5.92 | FC(F)(F)c1ccc2[nH]c(-c3ccc(-c4ccoc4)cc3)nc2c1
29 | 5.83 | Cn1cc(-c2ccc(-c3nc4cc(C(F)(F)F)ccc4[nH]3)cc2)cn1
30 | 5.60 | Cc1cc(Cl)ccc1-c1nc2cc([N+](=O)[O-])ccc2[nH]1
31 | 6.14 | NCc1ccc(-c2ccc(-c3nc4cc(C(F)(F)F)ccc4[nH]3)cc2)cc1
32 | 5.64 | Cc1cc(-c2nc3cc([N+](=O)[O-])ccc3[nH]2)ccc1Cl
33 | 5.74 | O=[N+]([O-])c1ccc2[nH]c(-c3ccc(N4CCCC4)cc3)nc2c1
